Source: PubChem BioAssay (NCI)
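Values below derive from 48-hour exposures of cells grown in 96-well plates, with endpoints linearly interpolated between the two concentrations bracketing the appropriate inhibition level. The concentration for full growth arrest is given as TGI.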

tested on: PC-3 prostate; assay: DTP human tumour cell line panel, 48 h

Structure (SMILES) | TGI
Cc1cc(S(=O)(=O)N=C2N(Cc3ccccc3)CCN2Cc2ccccc2)c(S)cc1Cl | > 100 µM
COCN(CCC1=CCCCC1)C(=O)OC | > 100 µM

tested on: SK-MEL-28 melanoma; assay: DTP human tumour cell line panel, 48 h

Structure (SMILES) | TGI
CCN(CC)C(=O)Cn1c(C)cc2ccccc21 | > 100 µM
CC1(C)NC2C(=O)c3c([nH]c4ccccc34)[C@]3(C)CCC1CC23 (stereo partly drawn) | > 100 µM
COc1ccc2ccccc2c1/C=C/C(=O)c1ccccc1 | 17.9 µM
C[C@]12CCC(=O)O[C@H]1CCCCO2 | > 100 µM
CC(C)=CCC/C(C)=C/C=C/C(C)=C/C=C/C(C)=C/C=C/C=C(C)/C=C/C=C(C)/C=C/[C@H]1C(C(C)(C)O)CC[C@]1(C)O (stereo partly drawn) | 41.9 µM
O=C1C(CN2CCCCC2)CCC1CN1CCCCC1 (stereo not drawn) | 41.2 µM
CC1=NNC(N)=N/C1=C\C(Sc1ccc(Cl)cc1)c1ccc([N+](=O)[O-])cc1 (stereo not drawn) | > 100 µM
c1ccc2c(c1)ccn2CCc1c[nH]c2ccccc12 | > 10 µM
OCC(O)COCn1nncc1Cn1ncc2c(SCc3ccccc3)ncnc21 (stereo not drawn) | > 100 µM
O=C1CSC(c2cccc(Oc3ccccc3)c2)N1c1ccc(Cl)cc1 (stereo not drawn) | > 100 µM
Nc1nc(N)c2ncn(-c3ccc(Cl)cc3)c2n1 | > 100 µM
COc1cc(CNCc2cc(OC)c(OC)c(OC)c2)cc(OC)c1OC | > 10 µM
Oc1c(CN2CCOCC2)ccc2cccnc12 | > 10 µM
CCOCc1nc2c(OC)cc(-c3nc4ccc(N5CCN(C)CC5)cc4[nH]3)c(OC)c2[nH]1 | 36.3 µM
O=C(N/N=C\c1cccc2c([N+](=O)[O-])cccc12)Nc1ccccc1 | 31.9 µM
CC(=O)OCC12C(=O)C[C@@H](C)C3(CC(c4ccoc4)OC3=O)C1CCC(OC(C)=O)C21CO1 (stereo partly drawn) | > 100 µM
CCCCN1C(=O)N(c2ccc(OCC)cc2)C2N(CCCC)C1C(C)(C)C2(C)C (stereo not drawn) | > 100 µM
CON(C)C(=O)CNC(=O)OCC1c2ccccc2-c2ccccc21 | > 100 µM
O=C1/C(=N/O)Cc2c(Br)ccc(Br)c21 | > 100 µM
CSc1ncnc2c1ncn2C1CC(Oc2ccc(C)cc2)C(COc2ccc(C)cc2)O1 (stereo not drawn) | > 100 µM
O=C(O)Cc1cccc2c(=O)c3ccccc3oc12 | > 100 µM
CCOC(=O)N/N=C(/N)c1cccc([N+](=O)[O-])c1 | > 100 µM
COC1=C(OC)C(=O)C(Cc2c(C)nc3sc(C)cn23)=C(C)C1=O | 29.9 µM
COc1cccc(-c2ccc3c4c2O[C@H]2C(=O)CC[C@@]5(O)[C@@H](C3)N(CC3CC3)CC[C@]425)c1 | > 100 µM
O=C1/C(=C/c2ccc([N+](=O)[O-])cc2)C(=O)N(c2ccccc2)C1c1ccccc1 (stereo not drawn) | > 10 µM
Cc1cc(S(=O)(=O)N=C2N(Cc3ccccc3)CCN2Cc2ccccc2)c(S)cc1Cl | > 100 µM
COCN(CCC1=CCCCC1)C(=O)OC | > 100 µM

tested on: SW-620 colon; assay: DTP human tumour cell line panel, 48 h

Structure (SMILES) | TGI
CCN(CC)C(=O)Cn1c(C)cc2ccccc21 | > 100 µM
CC1(C)NC2C(=O)c3c([nH]c4ccccc34)[C@]3(C)CCC1CC23 (stereo partly drawn) | > 100 µM
COc1ccc2ccccc2c1/C=C/C(=O)c1ccccc1 | 6.53 µM
C[C@]12CCC(=O)O[C@H]1CCCCO2 | > 100 µM
CC(C)=CCC/C(C)=C/C=C/C(C)=C/C=C/C(C)=C/C=C/C=C(C)/C=C/C=C(C)/C=C/[C@H]1C(C(C)(C)O)CC[C@]1(C)O (stereo partly drawn) | 65.8 µM
O=C1C(CN2CCCCC2)CCC1CN1CCCCC1 (stereo not drawn) | 16 µM
CC1=NNC(N)=N/C1=C\C(Sc1ccc(Cl)cc1)c1ccc([N+](=O)[O-])cc1 (stereo not drawn) | > 100 µM
c1ccc2c(c1)ccn2CCc1c[nH]c2ccccc12 | > 10 µM
OCC(O)COCn1nncc1Cn1ncc2c(SCc3ccccc3)ncnc21 (stereo not drawn) | > 100 µM
O=C1CSC(c2cccc(Oc3ccccc3)c2)N1c1ccc(Cl)cc1 (stereo not drawn) | > 100 µM
COc1cc(CNCc2cc(OC)c(OC)c(OC)c2)cc(OC)c1OC | > 10 µM
Oc1c(CN2CCOCC2)ccc2cccnc12 | > 10 µM
CCOCc1nc2c(OC)cc(-c3nc4ccc(N5CCN(C)CC5)cc4[nH]3)c(OC)c2[nH]1 | > 100 µM
O=C(N/N=C\c1cccc2c([N+](=O)[O-])cccc12)Nc1ccccc1 | 35.8 µM
CC(=O)OCC12C(=O)C[C@@H](C)C3(CC(c4ccoc4)OC3=O)C1CCC(OC(C)=O)C21CO1 (stereo partly drawn) | > 100 µM
CCCCN1C(=O)N(c2ccc(OCC)cc2)C2N(CCCC)C1C(C)(C)C2(C)C (stereo not drawn) | > 100 µM
CON(C)C(=O)CNC(=O)OCC1c2ccccc2-c2ccccc21 | > 100 µM
O=C1/C(=N/O)Cc2c(Br)ccc(Br)c21 | > 100 µM
CSc1ncnc2c1ncn2C1CC(Oc2ccc(C)cc2)C(COc2ccc(C)cc2)O1 (stereo not drawn) | > 100 µM
O=C(O)Cc1cccc2c(=O)c3ccccc3oc12 | > 100 µM
CCOC(=O)N/N=C(/N)c1cccc([N+](=O)[O-])c1 | > 100 µM
COC1=C(OC)C(=O)C(Cc2c(C)nc3sc(C)cn23)=C(C)C1=O | 51.6 µM
COc1cccc(-c2ccc3c4c2O[C@H]2C(=O)CC[C@@]5(O)[C@@H](C3)N(CC3CC3)CC[C@]425)c1 | 29.2 µM
O=C1/C(=C/c2ccc([N+](=O)[O-])cc2)C(=O)N(c2ccccc2)C1c1ccccc1 (stereo not drawn) | > 10 µM
Cc1cc(S(=O)(=O)N=C2N(Cc3ccccc3)CCN2Cc2ccccc2)c(S)cc1Cl | > 100 µM
COCN(CCC1=CCCCC1)C(=O)OC | > 100 µM

tested on: T-47D breast; assay: DTP human tumour cell line panel, 48 h

Structure (SMILES) | TGI
CCN(CC)C(=O)Cn1c(C)cc2ccccc21 | > 100 µM
CC1(C)NC2C(=O)c3c([nH]c4ccccc34)[C@]3(C)CCC1CC23 (stereo partly drawn) | 90.8 µM
COc1ccc2ccccc2c1/C=C/C(=O)c1ccccc1 | 8.32 µM
C[C@]12CCC(=O)O[C@H]1CCCCO2 | > 100 µM
CC(C)=CCC/C(C)=C/C=C/C(C)=C/C=C/C(C)=C/C=C/C=C(C)/C=C/C=C(C)/C=C/[C@H]1C(C(C)(C)O)CC[C@]1(C)O (stereo partly drawn) | > 100 µM
O=C1C(CN2CCCCC2)CCC1CN1CCCCC1 (stereo not drawn) | 36.5 µM
CC1=NNC(N)=N/C1=C\C(Sc1ccc(Cl)cc1)c1ccc([N+](=O)[O-])cc1 (stereo not drawn) | > 100 µM
c1ccc2c(c1)ccn2CCc1c[nH]c2ccccc12 | > 10 µM
OCC(O)COCn1nncc1Cn1ncc2c(SCc3ccccc3)ncnc21 (stereo not drawn) | > 100 µM
O=C1CSC(c2cccc(Oc3ccccc3)c2)N1c1ccc(Cl)cc1 (stereo not drawn) | 91.9 µM
Nc1nc(N)c2ncn(-c3ccc(Cl)cc3)c2n1 | > 100 µM
COc1cc(CNCc2cc(OC)c(OC)c(OC)c2)cc(OC)c1OC | > 10 µM
Oc1c(CN2CCOCC2)ccc2cccnc12 | > 10 µM
O=Cc1ccc2c(c1)CC1(Cc3ccccc3C1)C2 | > 100 µM
CCOCc1nc2c(OC)cc(-c3nc4ccc(N5CCN(C)CC5)cc4[nH]3)c(OC)c2[nH]1 | > 100 µM
O=C(N/N=C\c1cccc2c([N+](=O)[O-])cccc12)Nc1ccccc1 | 20.4 µM
CC(=O)OCC12C(=O)C[C@@H](C)C3(CC(c4ccoc4)OC3=O)C1CCC(OC(C)=O)C21CO1 (stereo partly drawn) | > 100 µM
CCCCN1C(=O)N(c2ccc(OCC)cc2)C2N(CCCC)C1C(C)(C)C2(C)C (stereo not drawn) | > 100 µM
CON(C)C(=O)CNC(=O)OCC1c2ccccc2-c2ccccc21 | > 100 µM
O=C1/C(=N/O)Cc2c(Br)ccc(Br)c21 | > 100 µM
CSc1ncnc2c1ncn2C1CC(Oc2ccc(C)cc2)C(COc2ccc(C)cc2)O1 (stereo not drawn) | > 100 µM
O=C(O)Cc1cccc2c(=O)c3ccccc3oc12 | 61.7 µM
CCOC(=O)N/N=C(/N)c1cccc([N+](=O)[O-])c1 | > 100 µM
COC1=C(OC)C(=O)C(Cc2c(C)nc3sc(C)cn23)=C(C)C1=O | > 100 µM
COc1cccc(-c2ccc3c4c2O[C@H]2C(=O)CC[C@@]5(O)[C@@H](C3)N(CC3CC3)CC[C@]425)c1 | 41.6 µM
O=C1/C(=C/c2ccc([N+](=O)[O-])cc2)C(=O)N(c2ccccc2)C1c1ccccc1 (stereo not drawn) | > 10 µM
Cc1cc(S(=O)(=O)N=C2N(Cc3ccccc3)CCN2Cc2ccccc2)c(S)cc1Cl | > 100 µM
COCN(CCC1=CCCCC1)C(=O)OC | > 100 µM
